Experiment [1] concerns the target Vascular endothelial growth factor receptor 3 (Homo sapiens, UniProt P35916). Nature of the experiment: Selectivity interaction (KinomeScan (DiscoverX)) EUB0001079a FLT4. To be noted: at 1 µM.
The target of experiment [2] is T1, Hormonally up-regulated neu tumor-associated kinase (Homo sapiens) (UniProt P57058).
T1 sequence (whole entry): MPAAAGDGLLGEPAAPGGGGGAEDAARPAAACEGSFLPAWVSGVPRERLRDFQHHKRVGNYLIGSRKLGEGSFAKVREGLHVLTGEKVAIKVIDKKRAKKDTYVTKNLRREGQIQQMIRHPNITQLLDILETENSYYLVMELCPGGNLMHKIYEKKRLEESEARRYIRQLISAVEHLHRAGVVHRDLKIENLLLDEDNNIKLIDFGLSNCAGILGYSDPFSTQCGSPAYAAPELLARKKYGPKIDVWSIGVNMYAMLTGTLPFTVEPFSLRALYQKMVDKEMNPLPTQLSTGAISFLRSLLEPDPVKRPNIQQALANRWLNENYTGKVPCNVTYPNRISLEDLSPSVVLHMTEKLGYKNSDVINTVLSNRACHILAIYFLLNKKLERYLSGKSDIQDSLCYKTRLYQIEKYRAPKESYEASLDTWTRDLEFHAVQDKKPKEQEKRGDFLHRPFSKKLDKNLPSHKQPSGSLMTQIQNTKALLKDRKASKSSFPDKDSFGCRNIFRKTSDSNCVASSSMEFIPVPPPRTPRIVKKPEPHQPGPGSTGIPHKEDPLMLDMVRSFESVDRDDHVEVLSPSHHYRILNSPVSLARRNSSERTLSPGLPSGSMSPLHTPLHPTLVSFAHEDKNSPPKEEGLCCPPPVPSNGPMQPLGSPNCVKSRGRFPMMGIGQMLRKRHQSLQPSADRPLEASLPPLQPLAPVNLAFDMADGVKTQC
Put plainly: Selectivity interaction (KinomeScan (DiscoverX)) EUB0001619a HUNK. To be noted: at 1 µM.

Experiment [3] has as its target T2, STE20-related kinase adapter protein alpha (Homo sapiens) (UniProt Q7RTN6).
T2 sequence (whole entry): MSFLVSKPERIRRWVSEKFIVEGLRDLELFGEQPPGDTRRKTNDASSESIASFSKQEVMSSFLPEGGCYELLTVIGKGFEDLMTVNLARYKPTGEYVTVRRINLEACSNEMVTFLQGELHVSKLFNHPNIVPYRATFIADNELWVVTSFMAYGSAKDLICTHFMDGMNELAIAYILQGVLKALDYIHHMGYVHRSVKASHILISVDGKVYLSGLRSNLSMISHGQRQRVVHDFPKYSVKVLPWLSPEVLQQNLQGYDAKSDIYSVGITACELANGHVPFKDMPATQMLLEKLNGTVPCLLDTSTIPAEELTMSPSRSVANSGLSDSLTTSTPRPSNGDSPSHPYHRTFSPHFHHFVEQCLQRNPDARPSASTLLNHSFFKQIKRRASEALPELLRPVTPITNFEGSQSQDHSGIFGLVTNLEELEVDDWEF
Nature of the experiment: Selectivity interaction (ActivX KiNativ screen (ex vivo kinase selectivity in human PBMCs)) EUB0001619a STRADA. To be noted: PBMC, at 1 µM. The experiment is classed as cell-based.

Experiment [4] deals with Ribosomal protein S6 kinase alpha-1 (Homo sapiens, UniProt Q15418). Put plainly: Selectivity interaction (Kinase panel (Invitrogen)) EUB0000639a RPS6KA1. To be noted: at 200 nM.
Experiment [5] addresses Cyclin-dependent kinase 16 (Homo sapiens) (UniProt Q00536). Nature of the experiment: Selectivity interaction (ActivX KiNativ screen (kinase selectivity in THP-1 cell lysates)) EUB0000639a CDK16. The experiment is classed as subcellular. To be noted: lysate, at 1 µM.
For experiment [6], the target named is Calcium/calmodulin-dependent protein kinase type 1D (Homo sapiens) (UniProt Q8IU85). Put plainly: Selectivity interaction (ActivX KiNativ screen (kinase selectivity in THP-1 cell lysates)) EUB0000639a CAMK1D. The experiment is classed as subcellular. To be noted: lysate.
Experiment [7] deals with T3, Phosphatidylinositol 5-phosphate 4-kinase type-2 gamma (Homo sapiens) (UniProt Q8TBX8).
T3 sequence (whole entry): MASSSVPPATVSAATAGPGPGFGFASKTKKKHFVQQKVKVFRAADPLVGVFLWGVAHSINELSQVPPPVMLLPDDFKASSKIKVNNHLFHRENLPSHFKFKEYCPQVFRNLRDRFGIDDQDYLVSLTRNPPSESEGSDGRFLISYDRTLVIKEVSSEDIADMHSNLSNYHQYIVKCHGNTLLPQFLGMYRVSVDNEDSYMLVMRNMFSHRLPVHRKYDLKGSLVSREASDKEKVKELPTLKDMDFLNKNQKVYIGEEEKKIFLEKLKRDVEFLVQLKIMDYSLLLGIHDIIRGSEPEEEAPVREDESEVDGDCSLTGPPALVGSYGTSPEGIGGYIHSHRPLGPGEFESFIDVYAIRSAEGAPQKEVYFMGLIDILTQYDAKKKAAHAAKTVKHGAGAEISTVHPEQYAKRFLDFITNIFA
Put plainly: Selectivity interaction (ActivX KiNativ screen (kinase selectivity in THP-1 cell lysates)) EUB0000639a PIP4K2C. In kind it is subcellular. To be noted: lysate.

Experiment [8] concerns the target RAC-gamma serine/threonine-protein kinase (Homo sapiens, UniProt Q9Y243). Put plainly: Selectivity interaction (Millipore kinase profiler) EUB0000124b AKT3. To be noted: at 10 µM.
Experiment [9] addresses Proto-oncogene tyrosine-protein kinase Src (Homo sapiens, UniProt P12931). Nature of the experiment: Selectivity interaction (KinomeScan (DiscoverX)) EUB0000695a SRC. To be noted: at 100 nM.
Experiment [10] addresses BMP-2-inducible protein kinase (Homo sapiens) (UniProt Q9NSY1). Nature of the experiment: Selectivity interaction (Kinase panel (DSF assay)) EUB0001489b BMP2K.
Experiment [11] addresses Myosin light chain kinase, smooth muscle (Homo sapiens, UniProt Q15746). Put plainly: Selectivity interaction (KinomeScan (DiscoverX)) EUB0000092b MYLK. To be noted: at 10 µM.
Experiment [12] concerns the target T4, Serine/threonine-protein kinase ULK3 (Homo sapiens) (UniProt Q6PHR2).
T4 sequence (whole entry): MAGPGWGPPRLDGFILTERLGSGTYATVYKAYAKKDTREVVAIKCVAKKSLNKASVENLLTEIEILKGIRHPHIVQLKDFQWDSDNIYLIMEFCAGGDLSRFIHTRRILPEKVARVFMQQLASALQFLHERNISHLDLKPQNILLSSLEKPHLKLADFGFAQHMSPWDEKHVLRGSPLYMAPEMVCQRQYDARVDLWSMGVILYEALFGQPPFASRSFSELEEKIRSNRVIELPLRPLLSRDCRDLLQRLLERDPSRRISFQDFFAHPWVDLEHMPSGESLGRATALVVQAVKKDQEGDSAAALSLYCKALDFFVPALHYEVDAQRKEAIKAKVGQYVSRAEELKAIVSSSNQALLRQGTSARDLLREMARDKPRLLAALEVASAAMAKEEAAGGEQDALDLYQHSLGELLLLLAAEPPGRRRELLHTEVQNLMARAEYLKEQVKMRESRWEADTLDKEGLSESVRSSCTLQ
Nature of the experiment: Selectivity interaction (KinomeScan (DiscoverX)) EUB0000618a ULK3. To be noted: at 10 µM.

Chain of Calcium/calmodulin-dependent protein kinase type 1D (Homo sapiens) (Q8IU85 whole entry, looked up): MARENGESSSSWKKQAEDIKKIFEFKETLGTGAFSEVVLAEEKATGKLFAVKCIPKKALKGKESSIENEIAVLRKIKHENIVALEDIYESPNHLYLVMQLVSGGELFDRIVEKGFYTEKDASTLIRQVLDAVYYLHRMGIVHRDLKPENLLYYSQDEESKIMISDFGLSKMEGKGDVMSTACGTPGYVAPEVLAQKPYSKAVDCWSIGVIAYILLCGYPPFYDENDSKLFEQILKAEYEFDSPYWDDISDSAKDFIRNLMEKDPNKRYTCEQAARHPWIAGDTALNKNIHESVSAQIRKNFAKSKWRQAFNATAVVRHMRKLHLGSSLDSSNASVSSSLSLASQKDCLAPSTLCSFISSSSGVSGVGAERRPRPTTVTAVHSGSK
Chain of RAC-gamma serine/threonine-protein kinase (Q9Y243 whole entry): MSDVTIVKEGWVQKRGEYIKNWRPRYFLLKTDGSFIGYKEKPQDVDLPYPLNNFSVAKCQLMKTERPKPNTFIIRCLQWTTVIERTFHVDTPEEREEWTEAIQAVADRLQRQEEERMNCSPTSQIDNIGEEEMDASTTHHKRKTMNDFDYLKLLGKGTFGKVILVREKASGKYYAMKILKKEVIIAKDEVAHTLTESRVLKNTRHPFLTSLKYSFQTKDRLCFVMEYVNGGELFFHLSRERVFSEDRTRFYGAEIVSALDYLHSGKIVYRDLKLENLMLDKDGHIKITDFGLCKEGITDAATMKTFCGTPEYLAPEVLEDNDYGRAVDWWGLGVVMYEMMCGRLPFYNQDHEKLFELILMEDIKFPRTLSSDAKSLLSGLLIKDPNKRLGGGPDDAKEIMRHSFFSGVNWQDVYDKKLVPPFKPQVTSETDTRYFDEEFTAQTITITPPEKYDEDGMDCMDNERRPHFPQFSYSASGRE
Chain of Proto-oncogene tyrosine-protein kinase Src (P12931 2-536 limits assumed): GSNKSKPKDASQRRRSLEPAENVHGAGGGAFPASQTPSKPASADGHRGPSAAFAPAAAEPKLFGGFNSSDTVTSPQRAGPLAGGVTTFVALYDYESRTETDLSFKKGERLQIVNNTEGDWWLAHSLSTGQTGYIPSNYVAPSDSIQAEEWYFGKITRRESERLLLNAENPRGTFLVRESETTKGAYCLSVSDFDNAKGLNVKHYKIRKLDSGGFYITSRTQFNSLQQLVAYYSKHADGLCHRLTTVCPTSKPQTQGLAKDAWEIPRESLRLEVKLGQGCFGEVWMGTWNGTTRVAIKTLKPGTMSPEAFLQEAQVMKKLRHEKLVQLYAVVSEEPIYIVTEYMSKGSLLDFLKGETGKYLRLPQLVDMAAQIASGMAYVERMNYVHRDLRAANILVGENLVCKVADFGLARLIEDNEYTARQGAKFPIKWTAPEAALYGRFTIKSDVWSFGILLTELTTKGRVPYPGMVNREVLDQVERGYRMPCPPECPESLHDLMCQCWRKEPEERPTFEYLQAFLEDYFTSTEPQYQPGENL
Chain of Vascular endothelial growth factor receptor 3 (P35916 whole entry): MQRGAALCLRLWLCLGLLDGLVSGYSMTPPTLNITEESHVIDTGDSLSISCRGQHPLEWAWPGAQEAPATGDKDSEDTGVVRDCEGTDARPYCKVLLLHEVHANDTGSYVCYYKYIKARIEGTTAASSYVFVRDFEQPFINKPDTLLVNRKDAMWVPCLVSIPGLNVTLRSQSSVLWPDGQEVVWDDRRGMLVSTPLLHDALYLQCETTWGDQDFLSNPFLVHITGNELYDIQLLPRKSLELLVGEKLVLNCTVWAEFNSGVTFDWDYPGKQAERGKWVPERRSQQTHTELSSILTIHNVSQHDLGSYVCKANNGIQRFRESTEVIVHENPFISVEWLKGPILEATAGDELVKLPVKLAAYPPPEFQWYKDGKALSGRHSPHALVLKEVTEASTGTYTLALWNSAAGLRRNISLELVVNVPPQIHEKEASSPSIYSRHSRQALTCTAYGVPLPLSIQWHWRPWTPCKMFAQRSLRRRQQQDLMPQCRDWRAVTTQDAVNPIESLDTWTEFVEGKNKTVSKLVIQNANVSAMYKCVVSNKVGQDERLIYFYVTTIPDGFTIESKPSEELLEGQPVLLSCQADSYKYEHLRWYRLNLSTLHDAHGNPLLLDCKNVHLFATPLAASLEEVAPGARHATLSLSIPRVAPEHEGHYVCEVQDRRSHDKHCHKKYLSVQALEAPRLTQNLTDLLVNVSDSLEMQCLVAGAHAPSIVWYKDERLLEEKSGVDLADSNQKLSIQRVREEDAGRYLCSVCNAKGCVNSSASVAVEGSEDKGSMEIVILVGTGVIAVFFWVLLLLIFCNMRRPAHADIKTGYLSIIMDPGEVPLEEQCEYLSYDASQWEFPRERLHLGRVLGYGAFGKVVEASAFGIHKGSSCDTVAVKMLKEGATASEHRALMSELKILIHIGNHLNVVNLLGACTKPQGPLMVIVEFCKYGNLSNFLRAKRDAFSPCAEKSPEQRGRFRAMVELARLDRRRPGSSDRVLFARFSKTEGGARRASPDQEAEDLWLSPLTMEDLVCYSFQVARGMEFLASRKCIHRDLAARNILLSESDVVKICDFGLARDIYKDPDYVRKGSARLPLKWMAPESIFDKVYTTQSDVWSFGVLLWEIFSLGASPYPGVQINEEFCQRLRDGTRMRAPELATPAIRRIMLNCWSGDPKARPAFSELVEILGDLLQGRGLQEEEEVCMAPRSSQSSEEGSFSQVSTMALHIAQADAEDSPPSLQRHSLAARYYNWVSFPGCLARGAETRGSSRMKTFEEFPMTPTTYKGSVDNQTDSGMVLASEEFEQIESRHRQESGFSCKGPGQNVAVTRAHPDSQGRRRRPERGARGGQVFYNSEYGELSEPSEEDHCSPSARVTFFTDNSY
Chain of Ribosomal protein S6 kinase alpha-1 (Q15418 whole entry): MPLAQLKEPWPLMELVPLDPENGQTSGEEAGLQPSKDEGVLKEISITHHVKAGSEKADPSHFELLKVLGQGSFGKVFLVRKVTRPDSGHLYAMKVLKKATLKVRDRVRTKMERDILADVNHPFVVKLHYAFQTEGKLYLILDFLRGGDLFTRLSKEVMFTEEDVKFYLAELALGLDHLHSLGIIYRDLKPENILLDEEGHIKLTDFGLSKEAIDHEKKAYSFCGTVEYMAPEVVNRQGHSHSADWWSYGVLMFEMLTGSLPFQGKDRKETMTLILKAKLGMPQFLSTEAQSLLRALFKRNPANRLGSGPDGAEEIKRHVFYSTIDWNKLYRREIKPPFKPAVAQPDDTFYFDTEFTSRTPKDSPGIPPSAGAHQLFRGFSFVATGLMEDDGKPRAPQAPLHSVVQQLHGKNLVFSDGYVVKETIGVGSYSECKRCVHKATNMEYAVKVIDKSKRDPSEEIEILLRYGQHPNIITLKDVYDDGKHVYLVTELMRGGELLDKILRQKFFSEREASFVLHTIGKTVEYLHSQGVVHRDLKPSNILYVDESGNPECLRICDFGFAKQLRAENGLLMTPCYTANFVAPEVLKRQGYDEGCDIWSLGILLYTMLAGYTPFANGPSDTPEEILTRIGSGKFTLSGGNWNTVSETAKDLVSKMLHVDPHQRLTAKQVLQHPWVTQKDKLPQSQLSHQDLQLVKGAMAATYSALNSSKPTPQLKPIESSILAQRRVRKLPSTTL
Chain of BMP-2-inducible protein kinase (Homo sapiens) (Q9NSY1 whole entry, looked up): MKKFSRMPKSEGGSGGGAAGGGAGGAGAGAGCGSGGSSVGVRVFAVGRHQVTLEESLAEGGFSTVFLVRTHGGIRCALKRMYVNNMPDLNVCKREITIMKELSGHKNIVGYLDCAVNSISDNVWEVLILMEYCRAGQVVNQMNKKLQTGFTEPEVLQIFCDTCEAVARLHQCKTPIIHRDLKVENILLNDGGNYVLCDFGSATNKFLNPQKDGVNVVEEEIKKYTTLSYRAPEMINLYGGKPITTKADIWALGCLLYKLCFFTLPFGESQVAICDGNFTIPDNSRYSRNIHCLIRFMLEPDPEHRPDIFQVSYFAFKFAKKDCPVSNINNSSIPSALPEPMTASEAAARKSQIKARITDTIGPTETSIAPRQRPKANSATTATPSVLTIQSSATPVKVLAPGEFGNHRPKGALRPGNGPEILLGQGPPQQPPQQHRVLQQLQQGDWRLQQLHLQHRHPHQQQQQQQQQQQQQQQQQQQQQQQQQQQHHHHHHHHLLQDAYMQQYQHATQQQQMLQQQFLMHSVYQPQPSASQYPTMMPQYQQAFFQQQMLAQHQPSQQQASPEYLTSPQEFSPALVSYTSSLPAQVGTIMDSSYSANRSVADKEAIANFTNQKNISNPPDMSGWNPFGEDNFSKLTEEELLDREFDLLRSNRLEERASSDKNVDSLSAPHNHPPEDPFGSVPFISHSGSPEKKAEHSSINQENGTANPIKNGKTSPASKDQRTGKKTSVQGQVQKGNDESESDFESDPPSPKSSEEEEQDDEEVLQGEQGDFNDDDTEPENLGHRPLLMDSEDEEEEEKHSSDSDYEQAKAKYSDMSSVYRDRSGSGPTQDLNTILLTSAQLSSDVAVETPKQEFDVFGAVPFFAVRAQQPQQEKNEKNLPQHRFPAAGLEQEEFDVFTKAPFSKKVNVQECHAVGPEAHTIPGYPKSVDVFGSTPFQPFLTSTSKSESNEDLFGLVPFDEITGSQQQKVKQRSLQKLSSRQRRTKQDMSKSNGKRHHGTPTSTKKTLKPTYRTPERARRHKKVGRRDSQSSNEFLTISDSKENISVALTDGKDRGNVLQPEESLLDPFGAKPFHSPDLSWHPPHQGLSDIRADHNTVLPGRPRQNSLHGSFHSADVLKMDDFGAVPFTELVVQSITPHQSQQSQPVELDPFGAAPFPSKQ

In the case of `Nc1cnc(N2CCc3cc(S(=O)(=O)Nc4c(F)cc(Cl)cc4F)cc(N4CCCC4=O)c32)nc1` [TP-020n], the % of control in experiment [1] came out at 86%.

For `N#Cc1cccc(-c2c[nH]c3ncnc(N4CCOCC4)c23)c1`, in [2], the % of control turned out to be 100%. This molecule gave a % of inhibition in experiment [3] of 1%.

Consider `CC[C@@H]1[C@H](F)C(=O)N[C@@H]1COc1nccc2cc(C(N)=O)c(OC)cc12` [ZIMLOVISERTIB], for which the % of inhibition in experiment [4] is 2.83%; in [5], 7.7%; in [6] (at 0.01 µM) it was 7.8%; in [6] (at 0.04 µM), 5.4%; in [6] (at 0.2 µM), 9.3%; in [6] (at 1 µM), 18.4%. Besides, the % of inhibition in experiment [6] (at 5 µM) came to 34.3%; in [7] (at 0.01 µM) it was 6.3%; in [7] (at 0.04 µM), 19.8%; in [7] (at 0.2 µM), 55.9%; in experiment [7] (at 1 µM), 83.6%; in experiment [7] (at 5 µM), 93.9%.

Turning to `CC(=O)Nc1cccc(-n2c(=O)n(C3CC3)c(=O)c3c(Nc4ccc(I)cc4F)n(C)c(=O)c(C)c32)c1`, the % of control in experiment [8] was 109%.

In turn, `Cc1cc(F)c(C(=O)Nc2cccc(-c3nncn3C(C)C)n2)cc1-n1cnc(C2CC2)c1` showed a % of control in experiment [9] of 100%.

Regarding `CN1CCN(C(=O)c2ccc3cc2OCCOCCNc2ccn4ncc-3c4n2)CC1`, the dTM in experiment [10] turned out to be 6.8 K.

In [11], `CCC(=O)N1CCN(c2ccc(-n3c(=O)ccc4cnc5ccc(-c6cnc7ccccc7c6)cc5c43)cc2C(F)(F)F)CC1` showed a % of control of 87%.

On to `O[C@H]1CC[C@H](Nc2ncc3nc(Nc4c(F)cc(F)cc4F)n([C@H]4CCOC4)c3n2)CC1`, for which the % of control in experiment [12] is 94%.

The values above are taken from ChEMBL document CHEMBL5465560, “Selectivity Literature for EUbOPEN Chemogenomic Library” (2024).
